For seven molecules, Bliss excess results are on record in the supplement of paper PMC11061612.

Molecules are shown by their SMILES.

Assay in all cases: Bliss excess, mean over the matrix (fraction); higher = more synergy
Assay [1] has as its system NCI-H1048 (Small Cell Lung Carcinoma). Put shortly:
(§1)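 Cell lines grown in DMEM/F12 or RPMI with 10% FBS were plated in 1536-well plates and held 24 hours at 37°C, 5% CO2 before 72 hours of exposure to two-drug dose matrices, with DMSO typically at 0.2%. CellTiter-Glo 2.0 luminescence gave viability, which was converted to inhibition. Vehicle wells were set to 0 and blank wells to 1. Combination Emax is the second-highest inhibition in the matrix, and Bliss excess is the observed combination effect minus the expected EA + EB − EA·EB, where EA and EB are the single-agent effects.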

The test system of assay [2] is NCI-H1975 (Lung Adenocarcinoma). The gist of the method:
as §1

In assay [3] the test system is NTERA-2-cl-D1 (Other Solid Carcinomas). Put shortly:
as §1

Assay [4] concerns Daudi (Burkitt's Lymphoma). The gist of the method: as §1
For assay [5], the system named is RPMI-8402 (T-Lymphoblastic Leukemia). Put shortly:
as §1

The test system of assay [6] is ATN-1 (T-Lymphoblastic Leukemia). The gist of the method:
as §1

The test system of the next assay is GCIY (Gastric Carcinoma). Put shortly: as §1
Assay [7] deals with MRK-nu-1 (Breast Carcinoma). Put shortly: as §1
The subject of assay [8] is GRANTA-519 (B-Cell Non-Hodgkin's Lymphoma). The gist of the method: as §1
Assay [9] relates to NCI-H1435 (Non-Small Cell Lung Carcinoma). Put shortly: as §1
Assay [10] relates to NCI-H835 (Other Solid Carcinomas). Put shortly: as §1
Assay [11] has as its system SNU-1 (Gastric Carcinoma). Put shortly:
as §1

The test system of assay [12] is JURL-MK1 (Chronic Myelogenous Leukemia). The gist of the method:
as §1

Assay [13] deals with SBC-3 (Small Cell Lung Carcinoma). Put shortly: as §1
Assay [14] has as its system NCI-H1944 (Lung Adenocarcinoma). The gist of the method: as §1
Assay [15] relates to OVKATE (Ovarian Carcinoma). The gist of the method:
as §1

With `NC1(C(=O)N[C@@H](CCO)c2ccc(Cl)cc2)CCN(c2ncnc3[nH]ccc23)CC1` [Capivasertib] + CC(C)n1c(=O)n(C)c2cnc3cc(F)c(-c4ccc(OCCCN5CCCCC5)nc4)cc3c21 [AZD1390] (first compound max 10 µM, 7x7, partner max 0.3 µM), the Bliss excess in [1] was -0.037; in assay [2] it was -0.0165; in [3] it was 0.0115; in [4] it was -0.0326; in assay [5] it was -0.0456; in [6], -0.062. In addition, the Bliss excess in the assay with GCIY (Gastric Carcinoma) is -0.0841; in [7], -0.0985; in assay [8], -0.0859; in assay [9], -0.0336; in [10], -0.179; in assay [11], -0.079. The Bliss excess is -0.0489 in assay [12], -0.0144 in [13], -0.0893 in assay [14] and -0.0549 in assay [15].
In the case of `NC1(C(=O)N[C@@H](CCO)c2ccc(Cl)cc2)CCN(c2ncnc3[nH]ccc23)CC1` [Capivasertib] + CCN(CCO)CCCOc1ccc2c(Nc3cc(CC(=O)Nc4cccc(F)c4)[nH]n3)ncnc2c1 [AZD2811] (first compound max 10 µM, 7x7, partner max 1 µM), the Bliss excess in [1] is -0.0003; in assay [2], -0.0558; in assay [3] it was 0.0106; in assay [4] it was 0.103; in [5] it was -0.0421; in assay [6] it was -0.0813. The Bliss excess with GCIY (Gastric Carcinoma) is -0.0578; in assay [7] it was 0.0481; in assay [8] it was 0.0258; in assay [9], -0.0384; in assay [10] it was -0.103; in [11] it was 0.0214. Besides, the Bliss excess is 0.0026 in [12], 0.059 in assay [13], 0.101 in assay [14] and -0.0367 in [15].
For `NC1(C(=O)N[C@@H](CCO)c2ccc(Cl)cc2)CCN(c2ncnc3[nH]ccc23)CC1` [Capivasertib] + COc1nnc2ccc(N3CCC(c4ccc(OCCN5CCN(C)C(=O)[C@H]5C)cc4)CC3)nn12 [AZD5153] (first compound max 10 µM, 7x7, partner max 1 µM), the Bliss excess in [1] was 0.0588; in assay [2], -0.0761; in assay [3], -0.0097; in [4] it was 0.045; in assay [5], -0.0484; in [6], -0.0444. The Bliss excess in the assay on GCIY (Gastric Carcinoma) was -0.0265; in assay [7] it was 0.0058; in [8], -0.0148; in assay [9], -0.025; in assay [10] it was 0.0792; in assay [11], 0.0177. For the same molecule, the Bliss excess in assay [12] is 0.0101; in assay [13] it was -0.0135; in assay [14], -0.0124; in [15], -0.0368.
On to `NC1(C(=O)N[C@@H](CCO)c2ccc(Cl)cc2)CCN(c2ncnc3[nH]ccc23)CC1` [Capivasertib] + C[C@@H]1COCCN1C2=NC(=NC(=C2)C3(CC3)[S@](=N)(=O)C)C4=C5C=CNC5=NC=C4 [AZD6738] (first compound max 10 µM, 7x7, partner max 10 µM), for which the Bliss excess in assay [1] is -0.0204; in [2], -0.0576; in [3], -0.0258; in [4] it was 0.0167; in assay [5] it was -0.0768; in assay [6], -0.0127. In addition, the Bliss excess in the assay with GCIY (Gastric Carcinoma) is -0.128; in assay [7] it was 0.0032; in assay [8] it was -0.0136; in assay [9], 0.0077; in assay [10], -0.072; in assay [11] it was 0.0135. The Bliss excess is 0.0117 in assay [12], -0.0479 in [13], -0.0268 in [14] and -0.0516 in [15].
Take `NC1(C(=O)N[C@@H](CCO)c2ccc(Cl)cc2)CCN(c2ncnc3[nH]ccc23)CC1` [Capivasertib] + Cn1cnc2c(F)c(Nc3ccc(Br)cc3Cl)c(C(=O)NOCCO)cc21 [Selumetinib] (first compound max 10 µM, 7x7, partner max 10 µM): the Bliss excess in [1] was 0.0363; in assay [2], 0.0584; in assay [3] it was 0.0064; in [4], -0.0138; in assay [5], -0.037; in assay [6], 0.0055. For the same molecule, the Bliss excess in the assay with GCIY (Gastric Carcinoma) was -0.0245; in [7] it was 0.0218; in assay [8], -0.0205; in assay [9], 0.0234; in assay [10] it was -0.027; in [11], 0.0764. For the same molecule, the Bliss excess was 0.0263 in assay [12], -0.0353 in assay [13], 0.0543 in assay [14] and 0.0215 in [15].
For `CS(=O)(=O)CCNCc1ccc(-c2ccc3ncnc(Nc4ccc(OCc5cccc(F)c5)c(Cl)c4)c3c2)o1` [Lapatinib] + C[C@@H](Oc1cc(-c2cnn(C3CCNCC3)c2)cnc1N)c1c(Cl)ccc(F)c1Cl [Crizotinib] (first compound max 10 µM, 7x7, partner max 10 µM), the Bliss excess in [1] was -0.0255; in assay [2] it was -0.0428; in [3] it was -0.0579; in assay [4], -0.0179; in [5], -0.0375; in assay [6] it was 0.0298. In addition, the Bliss excess is -0.003 with GCIY (Gastric Carcinoma); 0.0477 in assay [7]; 0.0192 in [8]; 0.061 in [9]; -0.117 in [10]; 0.0039 in [11]. For the same molecule, the Bliss excess was 0.003 in assay [12], -0.0761 in assay [13], 0.015 in assay [14] and -0.0448 in assay [15].
Regarding `CC(=O)c1c(C)c2cnc(Nc3ccc(N4CCNCC4)cn3)nc2n(C2CCCC2)c1=O` [Palbociclib] + CC1(C)CCC(CN2CCN(c3ccc(C(=O)NS(=O)(=O)c4ccc(NCC5CCOCC5)c([N+](=O)[O-])c4)c(Oc4cnc5[nH]ccc5c4)c3)CC2)=C(c2ccc(Cl)cc2)C1 [Venetoclax] (first compound max 10 µM, 7x7, partner max 1 µM), the Bliss excess in assay [1] is -0.0339; in assay [2], -0.0254; in assay [3] it was -0.0389; in [4], 0.0137; in assay [5] it was -0.0777; in assay [6], 0.0869. For the same molecule, the Bliss excess in the assay on GCIY (Gastric Carcinoma) was -0.0391; in assay [7] it was -0.0262; in assay [8], 0.0884; in assay [9] it was -0.0191; in assay [10], -0.143; in assay [11], 0.0006. Also, the Bliss excess in assay [12] is -0.0716; in assay [13], -0.038; in assay [14], 0.0257; in assay [15], -0.0484.
